From the NIST ThermoML archive (doi:10.1016/j.jct.2013.05.047)
“And” between values parts separate entries of the source, which are not always exact repeats. Equal values may be shown once. Numbers after ± are expanded uncertainties.

Assays:
[1] = for vapor or sublimation pressure: Closed cell (Static) method
[2] = Molar enthalpy of transition or fusion; conditions: Crystal; DSC

Oc1ccc(Br)cc1 [4-bromophenol]
vapor or sublimation pressure, [1]
Conditions	Crystal	Liquid
285.34 K	0.00035 ± 0.0001 kPa	–
287.33 K	0.00046 ± 0.0001 kPa	–
289.29 K	0.00057 ± 0.0001 kPa	–
291.33 K	0.00073 ± 0.0001 kPa	–
293.31 K	0.00092 ± 0.00011 kPa	–
295.29 K	0.00116 ± 0.00011 kPa	–
297.25 K	0.00146 ± 0.00012 kPa	–
299.23 K	0.00182 ± 0.00012 kPa	–
301.2 K	0.00229 ± 0.00014 kPa	–
303.18 K	0.00286 ± 0.00015 kPa	–
303.2 K	–	0.00555 ± 0.00024 kPa
305.19 K	0.00358 ± 0.00018 kPa	–
305.2 K	–	0.00661 ± 0.00028 kPa
307.17 K	0.00441 ± 0.0002 kPa	–
307.18 K	–	0.00784 ± 0.00032 kPa
309.12 K	0.00541 ± 0.00024 kPa and 0.0054 ± 0.00024 kPa	–
309.17 K	–	0.00932 ± 0.00038 kPa
311.05 K	0.00664 ± 0.00028 kPa	–
311.16 K	–	0.01099 ± 0.00044 kPa
313.09 K	0.00818 ± 0.00034 kPa	–
313.12 K	–	0.01288 ± 0.00051 kPa
315.08 K	0.01002 ± 0.00041 kPa	–
315.09 K	–	0.01516 ± 0.00055 kPa
316.89 K	–	0.01755 ± 0.00058 kPa
317.09 K	0.01219 ± 0.00049 kPa	–
318.6 K	–	0.02013 ± 0.00062 kPa
319.01 K	0.01482 ± 0.00054 kPa	–
320.72 K	–	0.02383 ± 0.00068 kPa
320.99 K	0.01805 ± 0.00059 kPa	–
323.03 K	0.02185 ± 0.00065 kPa	0.02842 ± 0.00075 kPa
324.98 K	0.02644 ± 0.00072 kPa	–
325.02 K	–	0.03304 ± 0.00082 kPa
326.97 K	0.03198 ± 0.00081 kPa	0.03827 ± 0.0009 kPa
328.93 K	0.03838 ± 0.00091 kPa	–
328.95 K	–	0.04429 ± 0.001 kPa
330.89 K	–	0.05121 ± 0.0011 kPa
330.93 K	0.0461 ± 0.001 kPa	–
332.9 K	–	0.05904 ± 0.0012 kPa
334.9 K	–	0.06804 ± 0.0014 kPa
336.81 K	–	0.07806 ± 0.0015 kPa
338.78 K	–	0.0882 ± 0.0017 kPa
340.82 K	–	0.1022 ± 0.0019 kPa
342.8 K	–	0.1163 ± 0.0021 kPa
344.73 K	–	0.132 ± 0.0021 kPa
346.82 K	–	0.1517 ± 0.0023 kPa
348.66 K	–	0.1712 ± 0.0025 kPa
350.78 K	–	0.1945 ± 0.0028 kPa
352.64 K	–	0.2188 ± 0.003 kPa
354.73 K	–	0.2475 ± 0.0033 kPa
356.58 K	–	0.2774 ± 0.0036 kPa
358.68 K	–	0.3129 ± 0.004 kPa
360.5 K	–	0.3497 ± 0.0044 kPa
362.61 K	–	0.3938 ± 0.0049 kPa
364.5 K	–	0.4391 ± 0.0054 kPa
366.58 K	–	0.4925 ± 0.0059 kPa
368.3 K	–	0.549 ± 0.0065 kPa
370.51 K	–	0.6102 ± 0.0072 kPa

Conditions	Molar enthalpy of transition or fusion [kcal/mol]
[2]	4.04 ± 0.0956

Oc1ccc(Cl)cc1 [4-chlorophenol]
[1]
Conditions	Normal melting temperature [°C]	vapor or sublimation pressure [kPa]
273.48 K, Liquid	–	0.00084 ± 0.0001
273.5 K, Crystal	–	0.00039 ± 0.0001
275.43 K, Crystal	–	0.00049 ± 0.0001
275.44 K, Liquid	–	0.00104 ± 0.0001
277.42 K, Crystal	–	0.00063 ± 0.0001
277.42 K, Liquid	–	0.00128 ± 0.00011
279.38 K, Crystal	–	0.00081 ± 0.0001
279.38 K, Liquid	–	0.00158 ± 0.00011
281.38 K, Crystal	–	0.00103 ± 0.0001
281.38 K, Liquid	–	0.00192 ± 0.00012
283.35 K, Crystal	–	0.0013 ± 0.00011
283.37 K, Liquid	–	0.00234 ± 0.00013
285.33 K, Liquid	–	0.00286 ± 0.00015
285.35 K, Crystal	–	0.00166 ± 0.00012
287.31 K, Crystal	–	0.00208 ± 0.00013
287.32 K, Liquid	–	0.00345 ± 0.00017
289.31 K, Crystal	–	0.00262 ± 0.00014
289.31 K, Liquid	–	0.00418 ± 0.00019
291.28 K, Liquid	–	0.00507 ± 0.00022
291.31 K, Crystal	–	0.00327 ± 0.00016
293.28 K, Crystal	–	0.00406 ± 0.00019
293.28 K, Liquid	–	0.00606 ± 0.00026
295.27 K, Crystal	–	0.00505 ± 0.00022
295.32 K, Liquid	–	0.00733 ± 0.0003
297.25 K, Liquid	–	0.00872 ± 0.00036
297.26 K, Crystal	–	0.00624 ± 0.00027
299.21 K, Crystal	–	0.00766 ± 0.00032
299.23 K, Liquid	–	0.01048 ± 0.00042
301.2 K, Liquid	–	0.01241 ± 0.0005
301.23 K, Crystal	–	0.00951 ± 0.00039
303.19 K, Liquid	–	0.01472 ± 0.00054
303.2 K, Crystal	–	0.01166 ± 0.00047
305.18 K, Crystal	–	0.01436 ± 0.00054
305.18 K, Liquid	–	0.01741 ± 0.00058
307.16 K, Crystal	–	0.01755 ± 0.00058
307.18 K, Liquid	–	0.02059 ± 0.00063
309.14 K, Crystal	–	0.02132 ± 0.00064
309.14 K, Liquid	–	0.02426 ± 0.00069
311.11 K, Liquid	–	0.02854 ± 0.00075
311.14 K, Crystal	–	0.02603 ± 0.00071
313.12 K, Liquid	–	0.03332 ± 0.00083
315.06 K, Liquid	–	0.03907 ± 0.00092
317.07 K, Liquid	–	0.04539 ± 0.001
319.03 K, Liquid	–	0.05279 ± 0.0011
321.14 K, Liquid	–	0.06178 ± 0.0013
323.09 K, Liquid	–	0.07108 ± 0.0014
325.09 K, Liquid	–	0.08208 ± 0.0016
327.04 K, Liquid	–	0.09417 ± 0.0018
329.04 K, Liquid	–	0.1088 ± 0.002
331.02 K, Liquid	–	0.1249 ± 0.0023
Crystal, DTA	43.8 ± 0.4	–

Conditions	Molar enthalpy of transition or fusion [kcal/mol]
[2]	3.35 ± 0.0956
